The test system of assay [1] is lambs with acute pulmonary hypertension. The note with it: inhaled microparticles, awake lambs, U-46619-induced pulmonary hypertension; cited from earlier work.
Another assay deals with obese mice. The note with it: cited from earlier work.
The target in assay [2] is T1, soluble guanylate cyclase (sGC) (Homo sapiens (Human), UniProt Q02108+Q02153). Description: sGC-HEK-cGMP assay with SNP incubation, HTRF detection (Example 2B). Type of assay: cell-based. The note with it: HEK293 cells, 10 μM SNP; for Emax: 100% = BAY 41-2272 at 10 μM + 100 μM SNP, read-out: HEK assay Emax - unconstrained (%); for EC50: read-out: HEK assay EC50 - unconstrained. The protocol: Human embryonic kidney cells (HEK293), endogenously expressing soluble guanylate cyclase (sGC), were used to evaluate the activity of test compounds. Compounds stimulating the sGC enzyme should cause an increase in the intracellular concentration of cGMP. HEK 293 cells were seeded in Dulbecco's Modification of Eagle's Medium supplemented with fetal bovine serum (10% final) and L-glutamine (2 mM final) in a 200 μL volume at a density of 1×10^5 cells/well in a poly-D-lysine coated 96 well flat bottom plate and grown overnight at 37° C. Medium was aspirated and cells were washed with 1× Hank's Buffered Saline Salt Solution (200 μL). Cells were then incubated for 15 minutes at 37° C. with 200 μL of a 0.5 mM 3-isobutyl-1-methylxanthine (IBMX) solution. Test article and sodium nitroprusside solutions were then added to the assay mixture (2 μL each) and the resulting mixture incubated at 37° C. for 10 minutes. After the 10 minute incubation, the assay mixture was aspirated and 0.1M HCl (200 μL) was added to the cells. The plate was incubated at 4° C. for 30 minutes in the 0.1M HCl to stop the reaction and lyse the cells. The plates were then centrifuged at 1,200 g for 5 minutes at room temperature. GMP levels were determined using a cGMP HTRF assay (Cisbio Product #62GM2PEC). For each sample, 5 uL of HEK assay supernatant was diluted 1:5 in HTRF kit assay diluent and transferred to a well of the assay plate, and the HTRF assay was performed according to the HTRF kit manufacturer's instructions. Sample calculations were performed using high and low controls, where high control was supernatant from HEK assay performed in the presence of 10 uM Bay 41-2272+100 uM SNP, and the low control was the supernatant from the HEK assay performed in the presence of vehicle. A cGMP standard solution was prepared in 0.1 M HCl and diluted in order to perform a cGMP standard curve using the HTRF assay. Using Mean Ratio data from the HTRF assay, sample date were normalized according to the equation: 100*(Sample−Low Control)/(High Control−Low Control). Data were fit to a 3-parameter log agonist dose response (Top (% EMax), Bottom, log EC50) using Graphpad (Prism Software). Data in Table 4 was obtained using this modified assay procedure. (x μM concentration for test article solution and 10 μM concentration for SNP solution; wherein x is one of the following concentrations: 30 μM, 10 μM, 3 μM, 1 μM, 0.3 μM, 0.1 μM, 0.03 μM, 0.01 μM, 0.003 μM, 0.001 μM, 0.0003 μM and 0.01 nM.
(In general: Time-resolved FRET reads energy transfer from a long-lived donor to a nearby acceptor.)

The target of assay [3] is T1, soluble guanylate cyclase (sGC). Nature of the assay: sGC-HEK-cGMP assay with SNP incubation, LC/MS detection (Example 2A). As to conditions: HEK293 cells, 10 μM SNP, LC/MS detection; for Emax: 100% = BAY 41-2272 at 10 μM, read-out: HEK assay Emax - unconstrained (%); for EC50: top of curve not fitted to 100%, read-out: HEK assay EC50 - unconstrained. The assay is classed as cell-based. In outline: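 HEK293 cells with endogenous sGC were pretreated 15 min at 37 °C with 0.5 mM IBMX, then exposed 10 min at 37 °C to compound (added from 0.0001–30 μM solutions) plus SNP (from 10 μM solution). After 0.1 M HCl lysis, cGMP was quantified by LC/MS against a standard curve.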

The test system of another assay is Sprague-Dawley rats. Nature of the assay: Blood pressure change in Sprague-Dawley rats (Example 4). The assay is classed as in vivo, rat. As to conditions: conscious male Sprague-Dawley rats, PO, 10 mg/kg. The protocol: Male rats (250-350 g body weight, supplied by Harlan Laboratories) were anesthetized with ketamine/xylazine and a heparinized saline fluid filled catheter implanted into the right femoral artery. The catheter was exteriorized between the scapula, capped, and the animal allowed to recover for at least 7 days post surgery prior to any compound testing. Prior to testing animals were maintained on normal diet, with free access to drinking water, under a 12 hour light-dark cycle.
On the day of experimentation, under inhaled isoflurane anesthesia, the catheter was uncapped and connected to a tether (Instech Labs) and pressure transducer (Harvard Apparatus). Blood pressure and heart rate were subsequently captured and analyzed with a dedicated data capture system (PowerLab, ADInstruments). Data sampling rates were set at 1 cycle per second. Once connected, each rat was allowed to recover from anesthesia and baseline blood pressure and heart rate levels were established in these conscious, freely-moving animals. Once baseline was established either vehicle (0.5% methylcellulose or 100% PEG400) or test article was administered orally (PO, 10 mg/kg) and the effects on blood pressure and heart rate monitored for up to 24 hours.
Data are reported as hourly averages and changes in blood pressure are calculated from subtracting individual baseline on an hourly basis.

The test system of assay [4] is Guinea pig tracheal smooth muscle. Nature of the assay: Electrical field stimulated guinea pig tracheal smooth muscle contraction. The note with it: inhibition of EFS-induced guinea pig tracheal smooth muscle contraction; 95% CI 0.78-0.94. From the text:
It is possible to assess the bronchodilating effects of sGC stimulators by using the system described below. This system allows us to determine potency, efficacy and duration of action of several sGC stimulators, as well as to assess potential side effects such as blood pressure, or heart rate changes.
Animals: Guinea pig, Dunkin Hartley, male, Full barrier-bred and certified free of specific micro-organisms on receipt 525-609 g on the experimental day, Harlan UK Ltd. Guinea pigs are housed in a group of 4 in solid-bottomed cages with Gold Flake bedding in a controlled environment (airflow, temperature and humidity). Food (FD1, Special Diet Services) and water are provided ad libitum.
On each experimental day, a guinea pig is killed by exposure to a rising concentration of CO2 and the trachea removed. […] Tissues are washed with Kreb's buffer and stimulated using the previously determined sub-maximal voltage for 1 hour to establish a stable baseline contraction prior to assessment of compound activity.
A cumulative dose response curve (DRC) to each test substance is then performed and changes in smooth muscle contraction measured. The effect of each test substance in each experiment is expressed as a percentage inhibition of the baseline contraction, normalized to the relevant vehicle controls. […]

The test system of a further assay is patients with BMD. The note with it: single oral dose of 20 mg; cited from earlier work.

These results are taken from US10183021B2, “sGC stimulators” (Ironwood Pharmaceuticals, Inc., priority 2013, dated 2019).

T1 sequence (Q02153 whole entry): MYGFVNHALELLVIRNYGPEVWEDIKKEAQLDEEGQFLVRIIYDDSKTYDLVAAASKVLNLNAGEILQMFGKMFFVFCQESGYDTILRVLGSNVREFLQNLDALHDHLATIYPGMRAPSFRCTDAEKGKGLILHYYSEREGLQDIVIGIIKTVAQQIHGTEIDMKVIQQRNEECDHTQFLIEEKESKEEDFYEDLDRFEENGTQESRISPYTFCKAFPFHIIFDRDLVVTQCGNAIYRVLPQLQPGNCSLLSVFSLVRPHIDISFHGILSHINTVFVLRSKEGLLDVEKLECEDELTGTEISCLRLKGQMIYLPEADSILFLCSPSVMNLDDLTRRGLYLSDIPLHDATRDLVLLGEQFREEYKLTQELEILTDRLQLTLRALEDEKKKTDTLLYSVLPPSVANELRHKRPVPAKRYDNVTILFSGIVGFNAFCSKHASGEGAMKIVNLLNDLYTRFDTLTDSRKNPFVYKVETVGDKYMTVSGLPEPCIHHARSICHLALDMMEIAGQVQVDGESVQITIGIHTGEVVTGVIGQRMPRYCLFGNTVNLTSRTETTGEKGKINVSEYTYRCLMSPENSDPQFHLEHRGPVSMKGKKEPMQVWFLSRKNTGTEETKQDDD
T1 sequence (Q02108 whole entry): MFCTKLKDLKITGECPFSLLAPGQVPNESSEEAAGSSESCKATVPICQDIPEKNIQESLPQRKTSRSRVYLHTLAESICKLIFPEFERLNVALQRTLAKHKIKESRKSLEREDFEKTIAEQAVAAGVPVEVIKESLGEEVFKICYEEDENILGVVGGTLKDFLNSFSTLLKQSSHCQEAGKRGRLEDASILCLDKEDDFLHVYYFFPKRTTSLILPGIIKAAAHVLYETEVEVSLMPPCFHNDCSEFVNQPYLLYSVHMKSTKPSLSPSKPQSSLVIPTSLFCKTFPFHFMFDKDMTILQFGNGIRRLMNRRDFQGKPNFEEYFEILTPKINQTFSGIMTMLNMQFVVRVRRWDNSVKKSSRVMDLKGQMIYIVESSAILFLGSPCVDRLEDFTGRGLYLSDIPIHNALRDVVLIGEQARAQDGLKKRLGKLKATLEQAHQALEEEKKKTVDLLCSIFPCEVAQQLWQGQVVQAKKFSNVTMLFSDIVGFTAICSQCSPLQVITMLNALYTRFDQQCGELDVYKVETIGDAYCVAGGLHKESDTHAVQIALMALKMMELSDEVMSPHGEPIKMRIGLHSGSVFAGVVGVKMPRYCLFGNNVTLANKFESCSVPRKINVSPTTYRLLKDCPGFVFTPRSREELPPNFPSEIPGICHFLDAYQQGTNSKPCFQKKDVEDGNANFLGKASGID

For the compound `Nc1nc(-c2nn(Cc3ccccc3F)c3ncccc23)ncc1C1CC1` [BAY 41-2272], the pulmonary vasodilation entry in assay [1] was “dose dependent pulmonary vasodilation”.

With `Nc1nc(-c2nn(Cc3ccccc3F)c3ncccc23)nc(N)c1N1CCOCC1` [BAY 41-8543], in assay [1], the pulmonary vasodilation entry was “dose dependent pulmonary vasodilation”.

With `O=C(O)CCCCN(CCc1ccccc1OCc1ccc(CCc2ccccc2)cc1)Cc1ccc(C(=O)O)cc1` [BAY 58-2667], in assay [1], the pulmonary vasodilation result is “dose dependent pulmonary vasodilation”.

As to `O=C(O)CCCCN(CCc1cc(F)ccc1OCc1ccc(-c2ccc(C(F)(F)F)cc2)cc1)Cc1ccc(C(=O)O)cc1` [BAY 60-2770], in the assay on obese mice, the “effect on overactive bladder” value was “ameliorates overactive bladder in obese mice”.

As a reminder, the Emax is the greatest response seen or fitted, relative to the assay's reference. As a reminder, the EC50 is the concentration needed to bring the measured effect to its halfway point. Take `CC(C)[C@H](CN(C)c1nc(-c2cc(-c3ccon3)n(Cc3ccccc3F)n2)ncc1F)C(=O)O` [Compound I-248]: the Emax in assay [2] and in assay [3] was 80 to 100% throughout. The EC50 in assay [2] and in assay [3] was 1 to 100 nM throughout. Moreover, the “Rat Mean Arterial Pressure peak change from baseline at 10 mpk” value in the assay on Sprague-Dawley rats was “C (C = peak change from baseline at 10 mpk < −20)”.

Take `CC(C)[C@@H](CN(C)c1nc(-c2cc(-c3ccon3)n(Cc3ccccc3F)n2)ncc1F)C(=O)O` [Compound I-253]: in assay [2], the maximum response (Emax) was 80 to 100% and the EC50 was in the range of 1 to 100 nM. In assay [3], the Emax was 60 to 80% and the EC50 was 1 to 100 nM. Besides, the “Rat Mean Arterial Pressure peak change from baseline at 10 mpk” value with Sprague-Dawley rats is listed as “B (B = −20 ≤ peak change from baseline at 10 mpk ≤ −10)”.

The term IC50 denotes the concentration that inhibits the measured activity by half. The compound `CC(C)[N+]1(C)[C@@H]2CC[C@H]1CC(OC(=O)C(CO)c1ccccc1)C2` (stereo partly shown) [Ipratropium bromide] had a 50% inhibitory concentration (IC50) in assay [4] of 0.86 nM.

Turning to `CN1CC(=O)N2[C@H](c3ccc4c(c3)OCO4)c3[nH]c4ccccc4c3C[C@@H]2C1=O` [tadalafil], the “blood flow regulation (exercise-induced attenuation of reflex vasoconstriction)” value in the assay with patients with BMD is listed as “normal blood flow regulation was restored in eight of nine patients”.
